Test results as given in patent publication US20090270350A1, “Pyridinone Pyrazole Urea and Pyrimidinone Pyrazole Urea Derivatives” (PFIZER INC., priority 2006, published 2009).

Tests used:
[1] = biological target: p38α (Homo sapiens, UniProt Q16539); test: p38α/MK2 cascade assay; assay type: biochemical; settings: Table 2; same p38α/MK2 cascade assay; 40 minutes preincubation; read-out: p38a/MK2 Cascade 40 min Pre-Incuabtion (% Inhibition): IC50
Summary of the method: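 In a cascade format, p38α was preincubated 40 min with inhibitor (1000–0.05 nM) before adding 1 nM nonactive MK2 (54-400), 5 μM MgATP and 0.5 μM FITC-Hsp27 peptide. Reaction ran 60 min in HEPES pH 7.5 with MgCl2, DTT, 2% DMSO, then EDTA-quenched. Peptide phosphorylation was measured by Caliper mobility shift to give IC50.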

Chain of p38α (Q16539 whole entry): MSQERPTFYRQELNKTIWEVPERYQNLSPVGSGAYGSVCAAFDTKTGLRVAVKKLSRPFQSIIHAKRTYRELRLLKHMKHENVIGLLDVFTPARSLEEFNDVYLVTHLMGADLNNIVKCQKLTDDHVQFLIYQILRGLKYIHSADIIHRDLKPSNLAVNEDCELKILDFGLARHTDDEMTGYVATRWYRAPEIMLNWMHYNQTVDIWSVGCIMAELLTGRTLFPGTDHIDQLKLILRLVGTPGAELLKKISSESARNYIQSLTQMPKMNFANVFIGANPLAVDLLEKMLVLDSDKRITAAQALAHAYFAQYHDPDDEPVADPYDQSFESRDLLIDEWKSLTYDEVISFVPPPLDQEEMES

melting point | IC50 [1] | SMILES
147 to 148 °C | – | COC(=O)c1ccc(C)c(-n2c(C)cc(OCc3ccccc3CNC(=O)Nc3cc(C(C)(C)C)nn3-c3cccc(OCCO)c3)c(Cl)c2=O)c1 [Example 130, 3-{4-[2-(3-{5-tert-Butyl-2-[3-(2-hydroxy-ethoxy)-phenyl]-2H-pyrazol-3-yl}-ureidomethyl)-benzyloxy]-3-chloro-6-methyl-2-oxo-2H-pyridin-1-yl}-4-methyl-benzoic acid methyl ester]
162 to 163 °C | – | Cc1ccc(C(=O)NCCO)cc1-n1c(C)cc(OCc2ccccc2CNC(=O)Nc2cc(C(C)(C)C)nn2-c2cccc(OCCO)c2)c(Cl)c1=O [Example 132, 3-{4-[2-(3-{5-tert-Butyl-2-[3-(2-hydroxy-ethoxy)-phenyl]-2H-pyrazol-3-yl}-ureidomethyl)-benzyloxy]-3-chloro-6-methyl-2-oxo-2H-pyridin-1-yl}-N-(2-hydroxy-ethyl)-4-methyl-benzamide]
– | 9.2 nM | COc1ccc(Cn2c(C)cc(OCc3ccccc3CNC(=O)Nc3cc(C(C)(C)C)nn3-c3cccc(O)c3)c(C)c2=O)cc1Cl [Example 259, 1-[3-tert-butyl-1-(3-hydroxyphenyl)-1H-pyrazol-5-yl]-3-[2-({[1-(3-chloro-4-methoxybenzyl)-3,6-dimethyl-2-oxo-1,2-dihydro-pyridin-4-yl]oxy}methyl)benzyl]urea]
– | 15.4 nM | COc1ccc(Cn2c(C)cc(OCc3ccccc3CNC(=O)Nc3cc(C(C)(C)C)nn3-c3ccc(Cl)c(O)c3)c(C)c2=O)cc1Cl [Example 260, 1-[3-tert-butyl-1-(4-chloro-3-hydroxyphenyl)-1H-pyrazol-5-yl]-3-[2-({[1-(3-chloro-4-methoxybenzyl)-3,6-dimethyl-2-oxo-1,2-dihydropyridin-4-yl]oxy}methyl)benzyl]urea]
– | 8.9 nM | Cc1cc(OCc2ccccc2CNC(=O)Nc2cc(C(C)(C)C)nn2-c2ccc(O)c(Cl)c2)c(Cl)c(=O)n1Cc1cccc(CNC(=O)CO)c1 [Example 261, N-[3-({4-[(2-{[({[3-tert-butyl-1-(3-chloro-4-hydroxyphenyl)-1H-pyrazol-5-yl]amino}carbonyl)amino]methyl}benzyl)oxy]-3-chloro-6-methyl-2-oxopyridin-1(2H)-yl}methyl)benzyl]-2-hydroxyacetamide]
– | 84.3 nM | COc1ccccc1Cn1c(C)cc(OCc2ccccc2CNC(=O)Nc2cc(C(C)(C)C)nn2-c2ccc(Cl)c(O)c2)c(Cl)c1=O [Example 262, 1-[3-tert-butyl-1-(4-chloro-3-hydroxyphenyl)-1H-pyrazol-5-yl]-3-[2-({[3-chloro-1-(2-methoxybenzyl)-6-methyl-2-oxo-1,2-dihydro-pyridin-4-yl]oxy}methyl)benzyl]urea]
– | 23.1 nM | COc1ccccc1Cn1c(C)cc(OCc2ccccc2CNC(=O)Nc2cc(C(C)(C)C)nn2-c2ccc(O)cc2)c(C)c1=O [Example 263, 1-[3-tert-butyl-1-(4-hydroxyphenyl)-1H-pyrazol-5-yl]-3-[2-({[1-(2-methoxybenzyl)-3,6-dimethyl-2-oxo-1,2-dihydropyridin-4-yl]oxy}methyl)benzyl]urea]
– | 27.4 nM | COc1ccccc1Cn1c(C)cc(OCc2ccccc2CNC(=O)Nc2cc(C(C)(C)C)nn2-c2ccc(O)c(Cl)c2)c(C)c1=O [Example 264, 1-[3-tert-butyl-1-(3-chloro-4-hydroxyphenyl)-1H-pyrazol-5-yl]-3-[2-({[1-(2-methoxybenzyl)-3,6-dimethyl-2-oxo-1,2-dihydro-pyridin-4-yl]oxy}methyl)benzyl]urea]
– | 8.4 nM | COc1ccc(Cn2c(C)cc(OCc3ccccc3CNC(=O)Nc3cc(C(C)(C)C)nn3-c3cccc(OCCO)c3)c(Cl)c2=O)cc1Cl [Example 265, 1-{3-tert-butyl-1-[3-(2-hydroxyethoxy)phenyl]-1H-pyrazol-5-yl}-3-[2-({[3-chloro-1-(3-chloro-4-methoxybenzyl)-6-methyl-2-oxo-1,2-dihydropyridin-4-yl]oxy}methyl)benzyl]urea]
– | 19.2 nM | COc1ccc(Cn2c(C)cc(OCc3ccccc3CNC(=O)Nc3cc(C(C)(C)C)nn3-c3ccc(O)c(Cl)c3)c(C)c2=O)cc1Cl [Example 266, 1-[3-tert-butyl-1-(3-chloro-4-hydroxyphenyl)-1H-pyrazol-5-yl]-3-[2-({[1-(3-chloro-4-methoxybenzyl)-3,6-dimethyl-2-oxo-1,2-dihydropyridin-4-yl]oxy}methyl)benzyl]urea]
– | 16.2 nM | COc1ccc(Cn2c(C)cc(OCc3ccccc3CNC(=O)Nc3cc(C(C)(C)C)nn3-c3ccc(O)cc3)c(C)c2=O)cc1Cl [Example 267, 1-[3-tert-butyl-1-(4-hydroxyphenyl)-1H-pyrazol-5-yl]-3-[2-({[1-(3-chloro-4-methoxybenzyl)-3,6-dimethyl-2-oxo-1,2-dihydro-pyridin-4-yl]oxy}methyl)benzyl]urea]
– | 23.6 nM | CSc1ccccc1Cn1c(C)cc(OCc2ccccc2CNC(=O)Nc2cc(C(C)(C)C)nn2-c2ccc(O)cc2)c(Cl)c1=O [Example 268, 1-[3-tert-butyl-1-(4-hydroxyphenyl)-1H-pyrazol-5-yl]-3-{2-[({3-chloro-6-methyl-1-[2-(methylthio)benzyl]-2-oxo-1,2-dihydro-pyridin-4-yl}oxy)methyl]benzyl}urea]
– | 20.4 nM | CSc1ccccc1Cn1c(C)cc(OCc2ccccc2CNC(=O)Nc2cc(C(C)(C)C)nn2-c2cccc(OCCO)c2)c(Cl)c1=O [Example 269, 1-{3-tert-butyl-1-[3-(2-hydroxyethoxy)phenyl]-1H-pyrazol-5-yl}-3-{2-[({3-chloro-6-methyl-1-[2-(methylthio)benzyl]-2-oxo-1,2-dihydropyridin-4-yl}oxy)methyl]benzyl}urea]
– | 32.7 nM | CSc1ccccc1Cn1c(C)cc(OCc2ccccc2CNC(=O)Nc2cc(C(C)(C)C)nn2-c2ccc(O)c(Cl)c2)c(Cl)c1=O [Example 270, 1-[3-tert-butyl-1-(3-chloro-4-hydroxyphenyl)-1H-pyrazol-5-yl]-3-{2-[({3-chloro-6-methyl-1-[2-(methylthio)benzyl]-2-oxo-1,2-dihydropyridin-4-yl}oxy)methyl]benzyl}urea]
– | 14.1 nM | CSc1ccccc1Cn1c(C)cc(OCc2ccccc2CNC(=O)Nc2cc(C(C)(C)C)nn2-c2cccc(O)c2)c(Cl)c1=O [Example 271, 1-[3-tert-butyl-1-(3-hydroxyphenyl)-1H-pyrazol-5-yl]-3-{2-[({3-chloro-6-methyl-1-[2-(methylthio)benzyl]-2-oxo-1,2-dihydropyridin-4-yl}oxy)methyl]benzyl}urea]
– | 2.4 nM | Cc1cc(OCc2ccccc2CNC(=O)Nc2cc(C(C)(C)C)nn2-c2ccc(Cl)c(O)c2)c(Cl)c(=O)n1Cc1ccc(CNC(=O)CN)cc1 [Example 272, N-[4-({4-[(2-{[({[3-tert-butyl-1-(4-chloro-3-hydroxyphenyl)-1H-pyrazol-5-yl]amino}carbonyl)amino]methyl}benzyl)oxy]-3-chloro-6-methyl-2-oxopyridin-1(2H)-yl}methyl)benzyl]-glycinamide]
– | 121 nM | CSc1ccccc1Cn1c(C)cc(OCc2ccccc2CNC(=O)Nc2cc(C(C)(C)C)nn2-c2ccc(Cl)c(O)c2)c(Cl)c1=O [Example 273, 1-[3-tert-butyl-1-(4-chloro-3-hydroxyphenyl)-1H-pyrazol-5-yl]-3-{2-[({3-chloro-6-methyl-1-[2-(methylthio)benzyl]-2-oxo-1,2-dihydropyridin-4-yl}oxy)methyl]benzyl}urea]
– | 3.6 nM | Cc1cc(OCc2ccccc2CNC(=O)Nc2cc(C(C)(C)C)nn2-c2ccc(O)c(Cl)c2)c(Cl)c(=O)n1Cc1ccc(CNC(=O)CN)cc1 [Example 274, N-[4-({4-[(2-{[({[3-tert-butyl-1-(3-chloro-4-hydroxyphenyl)-1H-pyrazol-5-yl]amino}carbonyl)amino]methyl}benzyl)oxy]-3-chloro-6-methyl-2-oxopyridin-1(2H)-yl}methyl)benzyl]-glycinamide]
– | 53.7 nM | COc1ccccc1Cn1c(C)cc(OCc2ccccc2CNC(=O)Nc2cc(C(C)(C)C)nn2-c2ccc(Cl)c(O)c2)c(C)c1=O [Example 275, 1-[3-tert-butyl-1-(4-chloro-3-hydroxyphenyl)-1H-pyrazol-5-yl]-3-[2-({[1-(2-methoxybenzyl)-3,6-dimethyl-2-oxo-1,2-dihydropyridin-4-yl]oxy}methyl)benzyl]urea]
– | 20.5 nM | COc1ccccc1Cn1c(C)cc(OCc2ccccc2CNC(=O)Nc2cc(C(C)(C)SC)nn2-c2cccc(O)c2)c(Cl)c1=O [Example 276, 1-[2-({[3-chloro-1-(2-methoxybenzyl)-6-methyl-2-oxo-1,2-dihydropyridin-4-yl]oxy}methyl)benzyl]-3-{1-(3-hydroxyphenyl)-3-[1-methyl-1-(methylthio)ethyl]-1H-pyrazol-5-yl}ure]
– | 131 nM | CSc1ccccc1Cn1c(C)cc(OCc2ccccc2CNC(=O)Nc2cc(C(C)(C)C)nn2-c2ccc(Cl)c(O)c2)c(C)c1=O [Example 277, 1-[3-tert-butyl-1-(4-chloro-3-hydroxyphenyl)-1H-pyrazol-5-yl]-3-{2-[({3,6-dimethyl-1-[2-(methylthio)benzyl]-2-oxo-1,2-dihydropyridin-4-yl}oxy)methyl]benzyl}urea]
– | 13.2 nM | CSc1ccccc1Cn1c(C)cc(OCc2ccccc2CNC(=O)Nc2cc(C(C)(C)C)nn2-c2cccc(O)c2)c(C)c1=O [Example 278, 1-[3-tert-butyl-1-(3-hydroxyphenyl)-1H-pyrazol-5-yl]-3-{2-[({3,6-dimethyl-1-[2-(methylthio)benzyl]-2-oxo-1,2-dihydropyridin-4-yl}oxy)methyl]benzyl}urea]
– | 3.67 nM | CNC(=O)c1ccc(C)c(-n2c(C)cc(OCc3ccc(F)cc3CNC(=O)Nc3cc(C(C)(C)C)nn3-c3ccc(C)cc3)c(Br)c2=O)c1 [Example 279, 3-{3-bromo-4-[(2-{[({[3-tert-butyl-1-(4-methylphenyl)-1H-pyrazol-5-yl]amino}carbonyl)-amino]methyl}-4-fluorobenzyl)oxy]-6-methyl-2-oxopyridin-1(2H)-yl}-N,4-dimethylbenzamide]
